Read-outs that look alike come from different tables or passages of the source.
Target: T1, mPGES-1 (Homo sapiens, UniProt O14684)
T1 construct: made in house; host or cells: E. coli
T1 sequence (O14684 1-152): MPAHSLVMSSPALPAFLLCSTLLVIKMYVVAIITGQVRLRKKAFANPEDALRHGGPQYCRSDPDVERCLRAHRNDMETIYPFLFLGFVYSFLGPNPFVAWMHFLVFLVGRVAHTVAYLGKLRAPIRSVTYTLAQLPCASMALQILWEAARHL
Assay: mPGES-1 assay: conversion of PGH2 to PGE2, PGE2 analysed by HPLC
Type: biochemical
Protocol: In the assay mPGES-1 catalyses the reaction where the substrate PGH2 is converted to PGE2. mPGES-1 is expressed in E. coli and the membrane fraction is dissolved in 20 mM NaPi-buffer pH 8.0 and stored at −80° C. […] The stop solution consists of H2O/MeCN (7/3), containing FeCl2 (25 mM) and HCl (0.15 M). The assay is performed at room temperature in 96-well plates.
The following is added chronologically to each well: • 1. 100 μL mPGES-1 in KPi-buffer with glutathione. Total protein concentration: 0.02 mg/mL. • 2. 1 μL inhibitor in DMSO. Incubation of the plate at room temperature for 25 minutes. • 3. 4 μL of a 0.25 mM PGH2 solution. Incubation of the plate at room temperature for 60 seconds. • 4. 100 μL stop solution. • 180 μL per sample is analyzed with HPLC.

[1] = biological test described above, 10 μM or below, read-out: concentration giving 50% inhibition of mPGES-1
[2] = mPGES-1 expressed in E. coli, 25 min preincubation with inhibitor, 60 s with PGH2, room temperature, read-out: IC50

| Compound | IC50 [1] | IC50 [2] |
| --- | --- | --- |
| CC(C)c1ccc2oc(-c3cc(NC(=O)c4cccnc4)ccc3Cl)nc2c1 [N-[4-chloro-3-(5-isopropylbenzoxazol-2-yl)phenyl]nicotinamide] | ≤ 10 µM |  |
| Cc1ccc2oc(-c3cc(NC(=O)c4ccccc4OC(F)(F)F)ccc3Cl)nc2c1 [Example 20, N-[4-Chloro-3-(5-methylbenzoxazol-2-yl)phenyl]-2-trifluoromethoxybenzamide] |  | 2.3 µM |
| Cc1ccc2oc(-c3cc(NC(=O)c4ccccc4F)ccc3Cl)nc2c1 [Example 23, N-[4-Chloro-3-(5-methylbenzoxazol-2-yl)phenyl]-2-fluorobenzamide] |  | 2.6 µM |
| Cc1cc(C)c2oc(-c3ccc(C)c(NC(=O)c4ccc(Cl)cc4Cl)c3)nc2c1 [2,4-dichloro-N-[2-methyl-5-(5,7-dimethylbenzoxazol-2-yl)phenyl]benzamide] | ≤ 10 µM |  |
| CC(C)c1ccc2oc(-c3cc(NC(=O)c4ccccc4Cl)ccc3Cl)nc2c1 [2-chloro-N-[4-chloro-3-(5-isopropylbenzoxazol-2yl)phenyl]benzamide] | ≤ 10 µM |  |
| CC(C)c1ccc2oc(-c3cccc(NC(=O)c4cc(Cl)ccc4Cl)c3)nc2c1 | ≤ 10 µM |  |
| O=C(Nc1ccc(Cl)c(-c2nc3cc(Cl)ccc3o2)c1)c1ccccc1[N+](=O)[O-] [N-[4-chloro-3-(5-chlorobenzoxazol-2-yl)phenyl]-2-nitrobenzamide] | ≤ 10 µM |  |
| O=C(Nc1ccc(Cl)c(-c2nc3cc(Cl)ccc3o2)c1)c1ccc([N+](=O)[O-])cc1Cl [2-chloro-N-[4-chloro-3-(5-chlorobenzoxazol-2-yl)phenyl]-4-nitrobenzamide] | ≤ 10 µM |  |
| O=C(Nc1ccc(Cl)c(-c2nc3cc(Cl)ccc3o2)c1)c1ccccc1Cl [2-chloro-N-[4-chloro-3-(5-chlorobenzoxazol-2-yl)phenyl]benzamide] | ≤ 10 µM |  |
| Cc1cc2nc(-c3cccc(NC(=O)c4cc(Cl)ccc4Cl)c3)oc2cc1C [2,5-dichloro-N-[3-(5,6-dimethylbemoxazol-2-yl)phenyl]benzamide] | ≤ 10 µM |  |
| COc1ccc(C(=O)Nc2ccc(Cl)c(-c3nc4cc(C(C)C)ccc4o3)c2)cc1[N+](=O)[O-] [N-[4-chloro-3-(5-isopropylbenzoxazol-2-yl)phenyl]-4-methoxy-3-nitrobenzamide] | ≤ 10 µM |  |
| Cc1ccc2oc(-c3cccc(NC(=O)c4ccccc4Cl)c3)nc2c1 [2-chloro-N-[3-(5-methylbenzoxazol-2-yl)phenyl]benzamide] | ≤ 10 µM |  |
| Cc1ccc2oc(-c3cccc(NC(=O)c4ccccc4[N+](=O)[O-])c3)nc2c1 [Example 3, N-[3-(5-Methylbenzoxazol-2-yl)phenyl]-2-nitrobenzamide] |  | 1.9 µM |
| O=C(Nc1cccc(-c2nc3cc(Cl)cc(Cl)c3o2)c1)c1ccccc1Br [2-bromo-N-[3-(5,7-dichlorobenzoxazol-2-yl)phenyl]benzamide] | ≤ 10 µM |  |
| CC(C)c1ccc2oc(-c3cc(NC(=O)c4ccccc4[N+](=O)[O-])ccc3Cl)nc2c1 [N-[4-chloro-3-(5-isopropylbenzoxazol-2-yl)phenyl]-2-nitrobenzamide] | ≤ 10 µM |  |

Reference: US20090258917A1 (priority 2005, published 2009)
